Data on two compounds can be found in publication PMC4195943, “A novel small-molecule MRCK inhibitor blocks cancer cell invasion” (Cell Communication and Signaling : CCS, 2014).

For orientation: EC50 means the midpoint of the concentration-response curve.

For one assay, the target named is T1, MRCKβ (Homo sapiens, UniProt Q9Y5S2).
T1 construct: The kinase domains of MRCKβ (1–473), ROCK1 (1–535) or ROCK2 (1–532) were gene synthesized; expressed in transfected cells; host or cells: MDA-MB-231 D3H2LN-Luc Tet3G cells, pTRE3G-MRCKβ (1–473)
T1 sequence (Q9Y5S2 1-473): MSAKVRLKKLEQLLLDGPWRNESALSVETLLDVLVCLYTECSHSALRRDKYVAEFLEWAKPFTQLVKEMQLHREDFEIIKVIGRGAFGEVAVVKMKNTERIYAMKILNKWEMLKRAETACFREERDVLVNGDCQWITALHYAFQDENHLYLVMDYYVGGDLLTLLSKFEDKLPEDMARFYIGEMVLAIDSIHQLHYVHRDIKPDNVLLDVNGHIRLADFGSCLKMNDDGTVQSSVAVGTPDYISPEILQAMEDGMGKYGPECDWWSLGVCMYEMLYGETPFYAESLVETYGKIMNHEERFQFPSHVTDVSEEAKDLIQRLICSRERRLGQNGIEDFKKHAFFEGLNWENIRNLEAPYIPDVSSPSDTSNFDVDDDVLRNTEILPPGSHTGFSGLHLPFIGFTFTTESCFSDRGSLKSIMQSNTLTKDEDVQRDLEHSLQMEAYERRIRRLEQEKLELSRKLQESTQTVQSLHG
As to the kind of experiment: MLC phosphorylation in MDA-MB-231 cells expressing doxycycline-induced MRCKβ kinase domain (quantitative western blot). It counts as cell-based. The protocol: (A) MDA-MB-231 breast cancer cells expressing doxycycline inducible ROCK1, ROCK2 or MRCKβ kinase domains were established as indicated. Following treatment with doxycycline for 18 hours to induce expression, cell lysates were western blotted with antibodies as indicated.
MDA-MB-231 D3H2LN-Luc cells (Caliper LifeScience) were grown in MEM/EBSS (Hyclone) supplemented with 10% fetal bovine serum (FBS) (Gibco), 1 mM Sodium Pyruvate (Sigma) 2 mM L-glutamine (Gibco), 1× MEM non-essential amino acids (Gibco) plus penicillin-streptomycin (10 Units/ml and 10 μg/ml respectively) at 37°C in 5% CO2 in a humidified incubator. MDA-MB-231 D3H2LN-Luc TetOn MRCKβ, ROCK1 and ROCK2 selective cell lines were grown in the same media with 10% FBS replaced with 10% Tet System Approved FBS (Clontech).
The kinase domains of MRCKβ (1–473), ROCK1 (1–535) or ROCK2 (1–532) were gene synthesized (Genscript) and subcloned into pTRE3G (Clontech). MDA-MB-231 D3H2LN-Luc Tet3G cells were co-transfected with pTRE3G-MRCKβ (1–473), pTRE3G-ROCK1 (1–535) or pTRE3G-ROCK2 (1–532), together with a linear Pur^r-selection marker using Xfect transfection reagent according to manufacturer’s instructions. […] Each clone was treated with or without doxycycline (1 μg/ml) for 24 hours and kinase domain expression and activity determined by western blotting. […]

Another assay relates to SCC12 cells. Put plainly: Cell confluence by Incucyte image analysis, SCC12 cells. It counts as cell-based, human. Conditions: 2 μM, 21 hours. The protocol: All results are shown as mean ± standard error of n = 3 independent replicates. […] Readings were compared to the Alamar Blue metabolism in DMSO treated cells that were used as the viability standard of 100% for each replicate experiment. […] (F) Number of invading cells was determined in 5 random fields for each condition for each separate replicate experiment. All results are shown as mean ± standard error of n ≥ 3 independent replicates.
MDA MB 231 or SCC12 cells were plated in a 96 well plate and cultured for 24 hours. […] Pictures were taken every 3 hours and confluence was measured using the IncuCyte analysis software. AlamarBlue (Invitrogen, DAL 1025) was added to the medium and the cells were cultured for an additional day. Absorbances at 570 nm and at 600 nm were measured to assess cell health.

Assay [1] concerns MLC phosphorylation in MDA-MB-231 cells. As to the kind of experiment: MLC phosphorylation in parental MDA-MB-231 breast cancer cells (quantitative western blot). It counts as cell-based, human. The following applies: for EC50: parental MDA-MB-231, 30 minutes treatment, read-out: EC50, inhibition of MLC phosphorylation; for pMLC on western blots at higher concentrations: parental MDA-MB-231, higher concentrations. How it is done: All results are shown as mean ± standard error of n = 3 independent replicates. […] After fixation and permeabilization, cells were stained with phalloidin to visualize filamentous actin structures and pMLC (S19) primary antibody as indicated.
Cell lysates were prepared as described previously. For pMLC western blots, cells were lysed in a 1% (w/v) SDS, 50 mM Tris pH 7.5 buffer and lysates were passed through QIAshredder columns (Qiagen, 79654). Alternatively, for pMLC western blots lysates were prepared in lysis buffer with 50 mM Tris (pH7.5), 0.5% (w/v) SDS, supplemented with Complete Protease and PhosSTOP inhibitors (Roche). Whole cell lysates were separated by SDS-PAGE, transferred to Protran nitrocellulose membranes (Whatman), probed with primary antibodies and appropriate IR dye-conjugated secondary antibodies. Blots were visualized using a Licor Odyssey according to manufacturer’s instructions. Antibodies used in this study were: MRCKα (611584) from BD Transduction Laboratories; MRCKβ (H00009578-A01) from Abnova; MRCKα/β (MANDM1 6G8) from Glenn Morris (Centre for Inherited Neuromuscular Disease, Oswestry UK); MRCL3/MRLC2/MYL9 (sc-28329) from Santa Cruz Biotechnology; pMLC2 Thr18/Ser19 (3674) from Cell Signaling Technology. ROCK1/2 (07–1458) from Millipore; TetR (Clone 9G9; 631132) from Clontech; α-Tubulin (TU-02; sc-8035) from Santa Cruz Biotechnology; ERK2 from Chris Marshall (Institute of Cancer Research, London UK). Secondary antibodies used were: goat anti-mouse IgG Dylight 800 from Thermo Scientific (35521), goat anti rabbit IgG AlexaFluor 680 from Invitrogen (A12076), goat anti-rabbit IgG IR Dye 800 CW (926–32211) and goat anti-mouse IgG IR Dye 680 (926–68020) were from LI-COR Biosciences.
Background: Immunoblotting shows a protein as a band on a membrane.

Each structure is given as a SMILES string. Where two headings read alike, the source gives them in different places. A value given as a limit tells only on which side of the number the result lay.

Turning to `O=C(Nc1cn[nH]c1-c1ccccn1)c1nn(C2CCNCC2)cc1Cl` [BDP5290, 4-chloro-1-(4-piperidyl)-N-[5-(2-pyridyl)-1H-pyrazol-4-yl]pyrazole-3-carboxamide], the “inhibition of MLC phosphorylation induced by MRCKβ” value against MRCKβ (3 μM) was “completely inhibited”. Besides, in the assay with SCC12 cells, the cell confluence result is on record as “did not significantly differ between treatments”. The EC50 in assay [1] (Homo sapiens, 0.5 h) worked out at 0.316 µM. The “pMLC on western blots at higher concentrations” value in assay [1] was “reduced pMLC to undetectable levels”.
`C[C@@H](N)[C@H]1CC[C@H](C(=O)Nc2ccncc2)CC1` [Y27632, reference compound]: the “inhibition of MRCKβ activity (MLC phosphorylation)” value against MRCKβ (highest 30 μM concentration) is recorded as at most 50%. Also, the cell confluence entry in the assay with SCC12 cells is reported as “did not significantly differ between treatments”. Besides, in assay [1], the EC50 amounted to 0.407 µM and the “pMLC on western blots at higher concentrations” value is reported as “unable to completely inhibit pMLC”.
